Measured values taken from patent US6822100B2 (Bristol-Myers Squibb Company, priority 2001, dated 2004).
Like-named read-outs stand apart in the source and are kept apart here.

Assays:
[1] = molecular target: T1, human serotonin transporters (Homo sapiens, UniProt P31645); assay: Serotonin Transporter Binding Assay; settings: HEK-hSERT cell membranes, 1 nM [3H]-citalopram, Cheng and Prusoff
T1 construct: expressed in transfected cells; host or cells: HEK-293 (HEK-hSERT), membrane homogenates
Description: HEK-293 cells that stably express human serotonin transporters (HEK-hSERT cells) were grown at 37° C. in 5% CO2 as a monolayer in medium consisting of EMEM supplemented with 10% fetal bovine serum and G418 sulfate (500 μg/ml). To prepare membranes for radioligand binding experiments, cells were rinsed twice with phosphate-buffered saline (138 mM NaCl, 4.1 mM KCl, 5.1 mM Na2PO4, 1.5 mM […], 11.1 mM glucose, pH 7.4). Cells were transferred from plates to polypropylene tubes (16×100 mm), centrifuged at 1,200×g for 5 min and were frozen at −80° C. until assay. Following centrifugation, pellets were resuspended by homogenization in buffer consisting of 50 mM Tris (pH 7.7 at 25° C.), 120 mM NaCl and 5 mM KCl and then centrifuged at 32,000×g for 10 min. Following centrifugation, supernatants were discarded and pellets were resuspended in buffer consisting of 50 mM Tris (pH 7.4 at 25° C.), 150 mM NaCl and 5 mM KCl. Membrane homogenates (200 μl/plate) were incubated with 1 nM [^3H]-citalopram (specific activity=85 Ci/mmol) and increasing concentrations of test compounds for 1 hr at 25° C. in a total volume of 250 μl. The assay buffer consisted of 50 mM Tris (pH 7.4 at 25° C.), 120 mM NaCl and 5 mM KCl (pH 7.4 with conc. HCl). Plates were incubated for 1 hr at 25° C., then filtered through 0.5% PEI treated Whatman GF/B filters using a Brandel cell harvester. Filters were washed three times with 3 ml of ice-cold tris wash buffer. Non-specific binding was defined with 10 μM fluoxetine. Amount of radioligand bound in the presence and absence of competitor was analyzed by plotting (−)log drug concentration versus the amount of radioligand specifically bound. The midpoint of the displacement curve (IC50, nM), signifies the potency. Ki values were calculated using the method of Cheng and Prusoff (1973).

[2] = molecular target: T2, recombinant human dopamine D2L receptors (Homo sapiens, UniProt P14416); assay: Dopamine Binding Assay; settings: HEK-D2L cell membranes, 150 pM [3H]-spiperone, Cheng and Prusoff
T2 construct: expressed in transfected cells; host or cells: HEK-293 (HEK-D2L), membrane homogenates
Description: HEK-293 cells that stably express recombinant human dopamine D2L receptors (HEK-D2L cells) were grown at 37° C. in 5% CO2 as a monolayer in medium consisting of EMEM supplemented with 10% fetal bovine serum and G418 sulfate (500 μg/ml). To prepare membranes for radioligand binding experiments, cells were rinsed twice with phosphate-buffered saline (138 mM NaCl, 4.1 mM KCl, 5.1 mM Na2PO4, 1.5 mM KH2PO2 11.1 mM glucose, pH 7.4), and incubated for 5-10 min. at 4° C. in hypotonic lysis buffer consisting of 10 mM Tris (pH 7.4) and 5 mM EDTA. Cells were transferred from plates to polypropylene tubes (16×100 mm), homogenized and centrifuged at 32,000×g for 20 min. Following centrifugation, pellets were resuspended by homogenization in buffer consisting of 50 mM Tris (pH 7.7 at 25° C.) and 1 mM EDTA. Homogenates were stored at −80° C. until needed. On the day of an experiment, homogenates were thawed then centrifuged at 32,000×g for 20 min. Following centrifugation, supernatants were discarded and pellets were resuspended in assay buffer consisting of 50 mM Tris (pH 7.4 at 25° C.), 1 mM EDTA and 6 mM MgCl2. Membrane homogenates (˜5 μg) were incubated with 150 pM [^3H]-spiperone (Amersham Life Science) and increasing concentrations of test compounds for 1.5 hr at 22° C. in a total volume of 400 μl. Reactions were stopped by addition of ice-cold assay buffer and filtration over glass fiber filters (Whatman GFB, pre-soaked in 0.05% polyethylenimine) using a microtitre format Brandel cell harvester. Filters were washed with 3 ml of ice-cold assay buffer. Non-specific binding was defined with 2 μM (+)butaclamol. Ki values were calculated using the method of Cheng and Prusoff (1973). Protein concentrations were determined by the method of Bradford (1976) with BSA as a standard.

T2 sequence (P14416 whole entry): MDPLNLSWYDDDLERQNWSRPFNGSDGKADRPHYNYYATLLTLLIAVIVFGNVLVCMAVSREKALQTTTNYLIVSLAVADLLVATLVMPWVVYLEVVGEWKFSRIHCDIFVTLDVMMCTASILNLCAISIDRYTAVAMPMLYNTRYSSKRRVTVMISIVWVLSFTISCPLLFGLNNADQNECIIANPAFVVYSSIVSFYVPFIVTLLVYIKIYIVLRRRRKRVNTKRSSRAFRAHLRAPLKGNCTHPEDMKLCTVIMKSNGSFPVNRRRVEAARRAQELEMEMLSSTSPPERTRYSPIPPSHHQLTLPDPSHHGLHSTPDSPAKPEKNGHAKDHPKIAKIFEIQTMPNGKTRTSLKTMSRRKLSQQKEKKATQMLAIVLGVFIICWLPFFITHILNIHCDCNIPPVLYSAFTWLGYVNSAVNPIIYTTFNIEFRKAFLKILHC
T1 sequence (P31645 whole entry): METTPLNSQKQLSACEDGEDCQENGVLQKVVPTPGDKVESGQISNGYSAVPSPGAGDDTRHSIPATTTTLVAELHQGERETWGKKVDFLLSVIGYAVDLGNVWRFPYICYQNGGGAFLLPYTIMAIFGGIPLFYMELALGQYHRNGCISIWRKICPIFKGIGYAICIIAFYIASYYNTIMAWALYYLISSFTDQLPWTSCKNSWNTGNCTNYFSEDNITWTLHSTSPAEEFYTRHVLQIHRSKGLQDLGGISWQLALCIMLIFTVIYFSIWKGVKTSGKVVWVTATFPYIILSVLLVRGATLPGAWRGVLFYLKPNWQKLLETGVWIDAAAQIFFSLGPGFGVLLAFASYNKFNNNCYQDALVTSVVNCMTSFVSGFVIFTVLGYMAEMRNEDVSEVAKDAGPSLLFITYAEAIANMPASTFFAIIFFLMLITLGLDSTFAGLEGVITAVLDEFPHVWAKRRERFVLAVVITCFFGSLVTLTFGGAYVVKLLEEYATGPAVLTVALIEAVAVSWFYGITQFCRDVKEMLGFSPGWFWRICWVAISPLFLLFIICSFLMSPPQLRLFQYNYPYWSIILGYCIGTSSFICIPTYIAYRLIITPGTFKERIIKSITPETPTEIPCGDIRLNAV

Ki ([1]; read-out: SERT Ki) [nM]	Structure (SMILES)	Ki ([1]; SERT Ki (nM)) [nM]	Ki [2] [nM]
–	CN(C)CC1CC1c1c[nH]c2ccc(C#N)cc12 (single isomer, unassigned) [Example 117, Cis-2-[5-Cyanoindol-3-yl]-1-(N,N-dimethylaminomethyl)cyclopropane]	1 to 10	> 1000
10 to 100	COc1cccc(CCNC[C@@H]2C[C@H]2c2c[nH]c3ccc(F)cc23)c1 (relative stereo) [Example 81]	–	10 to 100
10 to 100	CCCOC(=O)NCCCN(C)C[C@@H]1C[C@H]1c1c[nH]c2ccc(F)cc12 (relative stereo) [Example 106, trans-2-[5-Fluoroindol-3-yl]-1-[N,N-methyl-2-amino(propylcarbamoyl)propylaminomethyl]-cyclopropane]	–	100 to 1000
10 to 100	CCN(CCCNC(=O)OC(C)C)C[C@@H]1C[C@H]1c1c[nH]c2ccc(F)cc12 (relative stereo) [Example 115, trans-1-[N,N-Ethyl-2-amino(isopropylcarbamoyl)propylaminomethyl]-2-[5-fluoroindol-3-yl]-cyclopropane]	–	100 to 1000
–	CN(C)C[C@H]1C[C@@H]1c1c[nH]c2ccc(C#N)cc12 [Example 5, (1S,2S)-trans-2-[5-cyanoindol-3-yl]-1-(N,N-dimethylaminomethyl)-cyclopropane]	< 1	> 1000
1 to 10	CCCOC(=O)NCCN(C)C[C@@H]1C[C@H]1c1c[nH]c2ccc(F)cc12 (relative stereo) [Example 102]	–	100 to 1000
1 to 10	N#Cc1ccc2[nH]cc([C@@H]3C[C@H]3CNCCc3cccnc3)c2c1 (relative stereo) [Example 20, trans-2-[5-Cyanoindol-3-yl]-1-[N-2-(3-pyridyl)ethylaminomethyl]-cyclopropane]	–	> 1000
1 to 10	N#Cc1ccc2[nH]cc(C3CC3CNCC3CCCCC3)c2c1 (stereo not drawn) [Example 30, trans-2-[5-Cyanoindol-3-yl]-1-[N-cyclohexylmethylaminomethyl]-cyclopropane]	–	10 to 100
–	N#Cc1ccc2[nH]cc(C3CC3CN3CCNCC3)c2c1 (stereo not drawn) [Example 35, trans-2-[5-Cyanoindol-3-yl]-1-(piperazin-1-yl-methyl)-cyclopropane]	1 to 10	> 1000
1 to 10	CCN(CCNC(=O)OC(C)C)C[C@@H]1C[C@H]1c1c[nH]c2ccc(F)cc12 (relative stereo) [Example 111]	–	10 to 100
< 1	CCOC(=O)NCCN(CC)C[C@@H]1C[C@H]1c1c[nH]c2ccc(C#N)cc12 (relative stereo) [Example 94, trans-2-[5-Cyanoindol-3-yl]-1-[N,N-ethyl-2-amino(ethylcarbamoyl)ethylaminomethyl]-cyclopropane]	–	> 1000

Structure (SMILES)	Ki ([1]; read-out: SERT Ki) [nM]	Ki ([1]; SERT Ki (nM)) [nM]	Ki [2] [nM]
CCN(CC)C[C@@H]1C[C@H]1c1c[nH]c2ccc(C#N)cc12 (relative stereo) [Example 48]	1 to 10	–	100 to 1000
CC1CCN(CC2CC2c2c[nH]c3ccc(F)cc23)CC1 (centres unmarked) [Example 140]	100 to 1000	–	100 to 1000
N#Cc1ccc2[nH]cc([C@@H]3C[C@H]3CNC3CCCCC3)c2c1 (relative stereo) [Example 29, trans-2-[5-Cyanoindol-3-yl]-1-[N-cyclohexylaminomethyl]-cyclopropane]	10 to 100	–	10 to 100
CN(C)CC1CC1Cc1ccc2[nH]cc(C#N)c2c1 (centres unmarked) [Example 153, 5-(2-Dimethylaminomethyl-cyclopropylmethyl)-1H-indole-3-carbonitrile]	10 to 100	–	> 1000
N#Cc1ccc2[nH]cc([C@@H]3C[C@H]3CCCN3CCCC3)c2c1 (relative stereo) [Example 179, Trans-2-[5-cyanoindol-3-yl]-1-(3-(1-pyrrolidino)propyl)cyclopropane]	10 to 100	–	100 to 1000
CCN(C)CC1CC1c1c[nH]c2ccc(F)cc12 (centres unmarked) [Example 133]	10 to 100	–	100 to 1000
CCN(CC)CC1CC1c1n[nH]c2ccc(C#N)cc12 (centres unmarked) [Example 165, 3-(2-Diethylaminomethyl-cyclopropyl)-1H-indazole-5-carbonitrile]	100 to 1000	–	–
